Reference: patent US20250320215A1, “SALTS OF N-[4-(4-[[2-(DIMETHYLAMINO)ETHYL]AMINO]-3-METHYL-1H-PYRAZOLO[3,4-D]PYRIMIDIN-6-YL)-2-FLUOROPHENYL]-2,5-DIFLUOROBENZENESULFONAMIDE AND CRYSTALLINE FORMS THEREOF” (THRYV THERAPEUTICS INC, priority 2022, published 2025)
Converted amounts (≈) assume the structure as drawn. Like-named read-outs stand apart in the source and are kept apart here.

How the values were obtained:
Assay type in all cases: physicochemical
[1] = Estimated solubility by solvent addition method via visual assessment; details: thermodynamic from solid, room temperature, read-out: Solubility
Description: Solubility of Compound 3 Form B was estimated in 30 solvents at room temperature and in 9 organic solvents at 70° C. using solvent addition method via visual assessment.
Protocol: about 3 mg of Compound 3 Form B was weighed into a sample vial and the solvent was added gradually with vortex until the drug solution was clear by observation or a total of 2 mL solvent was added. Then, the estimated solubility (mg/mL) was calculated.
Solubility of Compound 4, Form B was estimated in 18 solvents at room temperature using solvent addition method via visual assessment. About 3 mg of Compound 4, Form B was weighed into a sample vial and the solvent was added gradually with vortex until the solution was clear by observation or a total of 2 mL solvent was added. Then, the estimated solubility (mg/mL) was calculated.

[2] = Dynamic vapor sorption/desorption (DVS) with post-DVS XRPD
Description: Moisture sorption/desorption data were collected on a DVS Intrinsic. 7-20 mg of a sample was placed into a tared sample chamber and automatically weighed. The anhydrates were analyzed with the following setting parameters:
DVS experiments (FIGS. 17, 19, 21, 34, 35, 48 and 50) and XRPD post-DVS experiments (FIGS. 18, 20, 22, 36, 49 and 51) were conducted in order to study the deliquescence behaviour of the crystalline salts upon expose to humidity.

[3] = Water activity study (competition of forms, XRPD); details: room temperature
Description: Water activity study was performed using Compound 3 Form B (anhydrate) as the input material in EtOH/Water with different water content at RT. About 5 mg of Compound 3, Form B was used to prepare saturated solutions and the solutions were filtered by syringe at RT. 5 mg of Compound 3, Form D were added in the 1 mL of filtrate, and the suspension was slurried at RT for 3 and 7 days. The solids collected after filtration were analyzed by XRPD.
Protocol: excess amount of Compound 4 Form B was used to prepare saturated solutions. 6-8 mg each of Compound 4 Form B and Form D were added in the solutions. The suspension was slurried at room temperature for the corresponding times. Residual solids were collected by filtration with syringe filter, and characterized by XRPD.

[4] = Slurry study evaluated by XRPD
Description: About 20 mg of Compound 3, Form B was weighed into a sample vial and then 1 mL of solvent was added to make a suspension. The suspension was stirred at room temperature or 50° C. for 3 days and 11 days. Then, the wet solid was collected by filtration and analyzed by XRPD.
20-30 mg of Compound 4 Form B was added in 1 mL of selected solvents at room temperature or 50° C. The suspension was slurried at room temperature or 50° C. for 3 days and 11 days. The wet solids collected from filtration were examined by XRPD. There were four crystal forms obtained by slurrying, including di-mesylate Forms B, C and D as well as mono-mesylate Form G.

[5] = Thermal treatment (heat-cool cycle by DSC, XRPD of resulting solids); details: Heated to 130° C. at 10° C./min, and cooled to 25° C. at 5° C./min
Description: Compound 3, Form E was treated with heat-cool cycle by DSC. The resulted solids were characterized by XRPD. Compound 3, Form E, was converted to Compound 3, Form D after desolvation.
Compound 4 Form B was treated with heat-cool cycle by DSC. The resulted solids were checked by XRPD. […] The water was excluded at elevated temperature, then entered in the crystal lattice again at room temperature.
Compound 4 Form C and trace Form B was treated with heat-cool cycle by DSC. The resulted solids were checked by XRPD. The sample was converted to low crystalline (LC) Form B after heating to 175° C.
Compound 4 Form D was treated with heat-cool cycle by DSC. The resulted solids were checked by XRPD. The sample kept unchanged after heating to 140° C., but was converted to a new low crystalline form after heating to 210° C. which was assigned to Form F.

[6] = slurry in ACN/Water (9/1, v/v) at RT

Structure (SMILES): Cc1n[nH]c2nc(-c3ccc(NS(=O)(=O)c4cc(F)ccc4F)c(F)c3)nc(NCCN(C)C)c12 [Compound 4 Form B]
- solubility ([1]; organic solvent or mixture, 2-Me THF): < 1500 µg/mL
- solubility ([1]; organic solvent or mixture, ACN): < 1500 µg/mL
- solubility ([1]; organic solvent or mixture, ACN/Water (9/1, v/v)): 15000 to 20000 µg/mL (≈ 29.7 to 39.6 mM)
- solubility ([1]; organic solvent or mixture, Acetone): < 1500 µg/mL
- solubility ([1]; organic solvent or mixture, DCM): < 1500 µg/mL
- solubility ([1]; organic solvent or mixture, DMA): 75000 to 150000 µg/mL (≈ 148 to 297 mM)
- solubility ([1]; organic solvent or mixture, DMSO): > 150000 µg/mL
- solubility ([1]; organic solvent or mixture, EA): < 1500 µg/mL
- solubility ([1]; organic solvent or mixture, EtOH): 3750 to 7500 µg/mL (≈ 7.42 to 14.8 mM)
- solubility ([1]; organic solvent or mixture, IPA): < 1500 µg/mL
- solubility ([1]; organic solvent or mixture, IPAC): < 1500 µg/mL
- solubility ([1]; organic solvent or mixture, MEK): < 1500 µg/mL
- solubility ([1]; organic solvent or mixture, MTBE): < 1500 µg/mL
- solubility ([1]; organic solvent or mixture, MeOH): 12000 to 20000 µg/mL (≈ 23.7 to 39.6 mM)
- solubility ([1]; organic solvent or mixture, MeOH/Water (9/1, v/v)): 75000 to 150000 µg/mL (≈ 148 to 297 mM)
- solubility ([1]; organic solvent or mixture, NMP): > 150000 µg/mL
- solubility ([1]; organic solvent or mixture, THF): < 1500 µg/mL
- solubility ([1]; Water): 75000 to 150000 µg/mL (≈ 148 to 297 mM)
- Comments: hygroscopicity (DVS) [2]: Hygroscopic
- hygroscopicity [2]: hygroscopic
- Post-DVS XRPD ([2]; XRPD after DVS versus before): No change
- wt % gain (DVS) ([2]; at 80% RH (25° C.)): 9.16 wt %
- water uptake (DVS) ([2]; at 80% RH, 25° C.): 9.16%
- Reversibility (DVS) ([2]; sorption/desorption): Reversible
- water activity (aw) at which the form is stable / the most stable form [3]: ≤ 0.08
- XRPD Result Day 3/Wet ([4]; slurry in 2-Me THF at 50° C.): Form D
- XRPD Result Day 11/Wet ([4]; slurry in 2-Me THF at 50° C.): Form D
- XRPD Result Day 3/Wet ([4]; slurry in 2-Me THF at RT): Form D
- XRPD Result Day 11/Wet ([4]; slurry in 2-Me THF at RT): Form D
- XRPD Result Day 3/Wet ([4]; slurry in ACN at 50° C.): Form B
- XRPD Result Day 11/Wet ([4]; slurry in ACN at 50° C.): Form B
- XRPD Result Day 3/Wet ([4]; slurry in ACN at RT): Form B
- XRPD Result Day 11/Wet ([4]; slurry in ACN at RT): Form B
- XRPD Result Day 3/Wet [4, 6]: Form D
- XRPD Result Day 11/Wet [4, 6]: Form D
- XRPD Result Day 3/Wet ([4]; slurry in Acetone at 50° C.): Form C
- XRPD Result Day 11/Wet ([4]; slurry in Acetone at 50° C.): Form D
- XRPD Result Day 11/Wet ([4]; slurry in Acetone at RT): Form D
- XRPD Result Day 3/Wet ([4]; slurry in DCM at 50° C.): Form B
- XRPD Result Day 3/Wet ([4]; slurry in DCM at RT): Form D
- XRPD Result Day 11/Wet ([4]; slurry in DCM at RT): Form D
- XRPD Result Day 3/Wet ([4]; slurry in EA at 50° C.): Form D
- XRPD Result Day 11/Wet ([4]; slurry in EA at 50° C.): Form D
- XRPD Result Day 11/Wet ([4]; slurry in EA at RT): Form D
- XRPD Result Day 3/Wet ([4]; slurry in EtOH at RT): Form D
- XRPD Result Day 11/Wet ([4]; slurry in EtOH at RT): Form D
- XRPD Result Day 3/Wet ([4]; slurry in IPA at 50° C.): Form D
- XRPD Result Day 11/Wet ([4]; slurry in IPA at 50° C.): Form D
- XRPD Result Day 3/Wet ([4]; slurry in IPA at RT): Form D
- XRPD Result Day 11/Wet ([4]; slurry in IPA at RT): Form D
- XRPD Result Day 3/Wet ([4]; slurry in IPAC at 50° C.): Form D
- XRPD Result Day 11/Wet ([4]; slurry in IPAC at 50° C.): Form D
- XRPD Result Day 3/Wet ([4]; slurry in IPAC at RT): Form D
- XRPD Result Day 11/Wet ([4]; slurry in IPAC at RT): Form D
- XRPD Result Day 3/Wet ([4]; slurry in MEK at 50° C.): Form D
- XRPD Result Day 11/Wet ([4]; slurry in MEK at 50° C.): Form D
- XRPD Result Day 3/Wet ([4]; slurry in MEK at RT): Form D
- XRPD Result Day 11/Wet ([4]; slurry in MEK at RT): Form D
- XRPD Result Day 3/Wet ([4]; slurry in MTBE at 50° C.): Form D
- XRPD Result Day 11/Wet ([4]; slurry in MTBE at RT): Form D
- XRPD Result Day 3/Wet ([4]; slurry in MeOH at RT): Form B
- XRPD Result Day 11/Wet ([4]; slurry in MeOH at RT): Form B
- XRPD Result Day 3/Wet ([4]; slurry in THF at 50° C.): Form C
- XRPD Result Day 3/Wet ([4]; slurry in THF at RT): Form C
- XRPD Result Day 11/Wet ([4]; slurry in THF at RT): Form D
- XRPD Result ([4]; slurry in Water at RT or 50° C. for 3 days): Mono-mesylate Form G was obtained.
- XRPD Resulting Form [5]: Form B
